Assay results reported in patent US20140199690A1, “MATERIALS AND METHODS FOR HIGH-THROUGHPUT DETERMINATION OF GENOME-WIDE DNA METHYLATION PROFILE” (THE HONG KONG UNIVERSITY OF SCIENCE AND TECHNOLOGY, priority 2013, published 2014).

Legend:
[1] = test system: murine embryonic fibroblasts cells; conditions: 5 μM aza-dC; cited from earlier work
HEK293T cells = assay: FPDM measurement of cellular DNA methylation after 5-aza-dC treatment; assay type: cell-based, human; conditions: 3 days, 100 ng DNA

Nc1ncn([C@H]2C[C@H](O)[C@@H](CO)O2)c(=O)n1 [5-aza-dC, 5-aza-2′-deoxycytidine]
hypomethylation relative to the untreated control [1]: about 42% | cellular DNA methylation measured by FPDM, relative to untreated control (HEK293T cells; 5 μM 5-aza-dC): 67.73±0.53 % of control | cellular DNA methylation measured by FPDM, relative to untreated control (HEK293T cells; 10 μM 5-aza-dC): 45.16±8.84 % of control
